Laboratory results: ChEMBL document CHEMBL6134911, “Broad Target Screening Reveals Abundance of FKBP12-Based Molecular Glues in Focused Libraries” (J Med Chem, 2025)
Calls of active or inactive are those of the source. The rule behind the calls is not given here.

Legend:
Homo sapiens [1] = species: Homo sapiens; assay: Competitive molecular glue activity at Strep-tagged EGFP-FKBP12 (unknown origin) extracted from Escherichia coli BL21 gold cells/6 His-tagged MBP-STAT4 (unknown origin) assessed as ternary complex formation incubated for 30 mins by HTRF assay
Homo sapiens [2] = species: Homo sapiens; assay: Competitive molecular glue activity at fluorescein maleimide-labeled FKBP12 C22V/E108C mutant (unknown origin)/6 His-tagged MBP-STAT4 (unknown origin) assessed as ternary complex formation incubated for 30 mins by fluorescence polarization analysis
Homo sapiens [3] = species: Homo sapiens; assay: Competitive molecular glue activity at fluorescein maleimide-labeled FKBP12 C22V/E108C mutant (unknown origin)/6 His-tagged MBP-STAT4 (unknown origin) assessed as ternary complex formation incubated for 30 mins in presence of FKBP12 ligand 18(S)-Me 29 by fluorescence polarization analysis
[4] = Competitive molecular glue activity at fluorescein maleimide-labeled FKBP12 C22V/E108C mutant (unknown origin)/6 His-tagged BRD4 BD2 domain (unknown origin) assessed as ternary complex formation by measuring dissociation constant incubated for 30 mins by fluorescence polarization analysis; set-up: species or system Homo sapiens
Homo sapiens [5] = species: Homo sapiens; assay: Competitive molecular glue activity at fluorescein maleimide-labeled FKBP12 C22V/E108C mutant (unknown origin)/6 His-tagged PTPRN (unknown origin) assessed as ternary complex formation incubated for 30 mins in presence of FKBP12 ligand 18(S)-Me 29 by fluorescence polarization analysis
Homo sapiens [6] = species: Homo sapiens; assay: Competitive molecular glue activity at Strep-tagged EGFP-FKBP12 (unknown origin) extracted from Escherichia coli BL21 gold cells/6 His-tagged PTPRN (unknown origin) assessed as ternary complex formation incubated for 30 mins by HTRF assay
Homo sapiens [7] = species: Homo sapiens; assay: Competitive molecular glue activity at fluorescein maleimide-labeled FKBP12 C22V/E108C mutant (unknown origin)/6 His-tagged PTPRN (unknown origin) assessed as ternary complex formation incubated for 30 mins by fluorescence polarization analysis
Homo sapiens [8] = species: Homo sapiens; assay: Competitive molecular glue activity at fluorescein maleimide-labeled FKBP12 C22V/E108C mutant (unknown origin)/6 His-tagged BRD4 BD2 domain (unknown origin) assessed as ternary complex formation incubated for 30 mins in presence of FKBP12 ligand 18(S)-Me 29 by fluorescence polarization analysis
Homo sapiens [9] = species: Homo sapiens; assay: Competitive molecular glue activity at fluorescein maleimide-labeled FKBP12 C22V/E108C mutant (unknown origin)/6 His-tagged BRD4 BD2 domain (unknown origin) assessed as ternary complex formation incubated for 30 mins in presence of JQ1 by fluorescence polarization analysis
[10] = molecular target: Bromodomain-containing protein 4 (Homo sapiens) (UniProt O60885); assay: Displacement of fluorescent JQ1 from BRD4 BD2 (unknown origin) incubated for 30 mins by fluorescence polarization analysis
Homo sapiens [11] = species: Homo sapiens; assay: Competitive molecular glue activity at fluorescein maleimide-labeled FKBP12 C22V/E108C mutant (unknown origin)/6 His-tagged BRD4 BD1 domain (unknown origin) assessed as ternary complex formation incubated for 30 mins by fluorescence polarization analysis
Homo sapiens [12] = species: Homo sapiens; assay: Competitive molecular glue activity at Strep-tagged EGFP-FKBP12 (unknown origin) extracted from Escherichia coli BL21 gold cells/6 His-tagged BRD4 BD2 domain (unknown origin) assessed as ternary complex formation incubated for 30 mins by HTRF assay
Homo sapiens [13] = species: Homo sapiens; assay: Competitive molecular glue activity at fluorescein maleimide-labeled FKBP12 C22V/E108C mutant (unknown origin)/6 His-tagged BRD4 BD2 domain (unknown origin) assessed as ternary complex formation incubated for 30 mins by fluorescence polarization analysis

SMILES: C=C[C@H]1CN(Cc2ccccn2)C(=O)[C@@H]2CCC[C@H]1N2S(=O)(=O)c1cc(-c2ccccc2)c2nc(-c3ccccc3)sc2c1
- Activity (Homo sapiens [1]): Dose-dependent-effect
- Activity (Homo sapiens [2]): Dose-dependent-effect
- Activity (Homo sapiens [3]): inactive

SMILES: C=C[C@@H]1CN(Cc2cn(-c3ccc(OC(C)C)cc3)nn2)C(=O)[C@@H]2CCC[C@H]1N2S(=O)(=O)c1cc(Cl)cc(Cl)c1
- Kd [4]: 144 µM

SMILES: COc1ccc(CC[C@@H](OC(=O)[C@@H]2CCCCN2S(=O)(=O)c2cc3c(c([N+](=O)[O-])c2)OCC3)c2cccc(CC(=O)O)c2)cc1OC
- Activity (Homo sapiens [5]): inactive
- Activity (Homo sapiens [6]): Dose-dependent-effect
- Activity (Homo sapiens [7]): Dose-dependent-effect

SMILES: C=C[C@@H]1CN(Cc2cn(-c3ccc(OC)c(Cl)c3)nn2)C(=O)[C@@H]2CCC[C@H]1N2S(=O)(=O)c1cc(Cl)cc(Cl)c1
- Kd [4]: 83 µM

SMILES: C=C[C@@H]1CN(Cc2cn(-c3ccc(N(C)C)cc3)nn2)C(=O)[C@@H]2CCC[C@H]1N2S(=O)(=O)c1cc(Cl)cc(Cl)c1
- Kd [4]: 115 µM

SMILES: C=C[C@@H]1CN(Cc2cn(-c3cc(OC)c(OC)c(OC)c3)nn2)C(=O)[C@@H]2CCC[C@H]1N2S(=O)(=O)c1cc(Cl)cc(Cl)c1
- Kd [4]: > 500 µM

SMILES: C=C[C@@H]1CN(Cc2cn(-c3ccc4[nH]ncc4c3)nn2)C(=O)[C@@H]2CCC[C@H]1N2S(=O)(=O)c1cc(Cl)cc(Cl)c1
- Kd [4]: 96 µM

SMILES: C=C[C@@H]1CN(Cc2cn(-c3ccc(C(C)=O)c(OC)c3)nn2)C(=O)[C@@H]2CCC[C@H]1N2S(=O)(=O)c1cc(Cl)cc(Cl)c1
- Kd [4]: 22 µM

SMILES: C=C[C@@H]1CN(Cc2cn(-c3ccc(OC)c(OC)c3)nn2)C(=O)[C@@H]2CCC[C@H]1N2S(=O)(=O)c1cc(Cl)cc(Cl)c1
- Activity (Homo sapiens [8]): inactive
- Kd [4]: 27 µM
- Activity (Homo sapiens [9]): inactive
- Activity [10]: inactive
- Activity (Homo sapiens [11]): inactive

SMILES: C=C[C@@H]1CN(Cc2cn(-c3ccc(OC)cc3)nn2)C(=O)[C@@H]2CCC[C@H]1N2S(=O)(=O)c1cc(Cl)cc(Cl)c1
- Activity (Homo sapiens [12]): Dose-dependent-effect
- Activity (Homo sapiens [13]): Dose-dependent-effect
- Activity (Homo sapiens [8]): inactive
- Kd [4]: 394 µM

SMILES: C=C[C@@H]1CN(Cc2cn(-c3ccc(C(C)=O)cc3)nn2)C(=O)[C@@H]2CCC[C@H]1N2S(=O)(=O)c1cc(Cl)cc(Cl)c1
- Kd [4]: 47 µM
